Data taken from PMC6010057, “Synthesis, carbonic anhydrase I and II inhibition studies of the 1,3,5-trisubstituted-pyrazolines” (Journal of Enzyme Inhibition and Medicinal Chemistry, 2016).

Key:
hCA I = hCA I (Homo sapiens, UniProt P00915); experiment: biochemical
hCA II = hCA II (Homo sapiens, UniProt P00918); experiment: biochemical

Sequence of hCA I (P00915 whole entry): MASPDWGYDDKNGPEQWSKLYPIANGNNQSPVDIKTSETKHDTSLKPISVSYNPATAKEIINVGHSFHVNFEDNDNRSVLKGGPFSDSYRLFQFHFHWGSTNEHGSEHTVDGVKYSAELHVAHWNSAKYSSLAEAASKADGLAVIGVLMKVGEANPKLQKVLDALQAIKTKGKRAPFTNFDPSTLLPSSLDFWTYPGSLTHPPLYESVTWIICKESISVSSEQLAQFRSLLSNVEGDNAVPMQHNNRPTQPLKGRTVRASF

Compound: NS(=O)(=O)c1ccc(N2N=C(c3ccccc3)CC2c2ccccc2)cc1 (stereo not shown) [Compound 9, 4-(3,5-Diphenyl-4,5-dihydro-1H-pyrazol-1-yl)benzenesulfonamide]
- IC50 (hCA I): 555 nM
- Ki (hCA I): 506 ± 133 nM
- IC50 (hCA II): 586 nM
- Ki (hCA II): 625 ± 168 nM

Compound: COc1ccc(C2=NN(c3ccc(S(N)(=O)=O)cc3)C(c3ccccc3)C2)cc1 (stereo not shown) [Compound 11, 4-(3-(4-Methoxyphenyl)-5-phenyl-4,5-dihydro-1H-pyrazol-1-yl)benzenesulfonamide]
- IC50 (hCA I): 484 nM
- Ki (hCA I): 533 ± 188 nM
- IC50 (hCA II): 486 nM
- Ki (hCA II): 469 ± 63 nM

Compound: NS(=O)(=O)c1ccc(N2N=C(c3ccc(Cl)cc3)CC2c2ccccc2)cc1 (stereo not shown) [Compound 12, 4-(3-(4-Chlorophenyl)-5-phenyl-4,5-dihydro-1H-pyrazol-1-yl)benzenesulfonamide]
- IC50 (hCA I): 403 nM
- Ki (hCA I): 378 ± 114 nM
- IC50 (hCA II): 559 nM
- Ki (hCA II): 521 ± 132 nM

Compound: NS(=O)(=O)c1ccc(N2N=C(c3ccc(F)cc3)CC2c2ccccc2)cc1 (stereo not shown) [Compound 13, 4-(3-(4-Fluorophenyl)-5-phenyl-4,5-dihydro-1H-pyrazol-1-yl)benzenesulfonamide]
- IC50 (hCA I): 493 nM
- Ki (hCA I): 462 ± 134 nM
- IC50 (hCA II): 536 nM
- Ki (hCA II): 587 ± 188 nM

Compound: NS(=O)(=O)c1ccc(N2N=C(c3ccc(Br)cc3)CC2c2ccccc2)cc1 (stereo not shown) [Compound 14, 4-(3-(4-Bromophenyl)-5-phenyl-4,5-dihydro-1H-pyrazol-1-yl)benzenesulfonamide]
- IC50 (hCA I): 405 nM
- Ki (hCA I): 317 ± 9.6 nM
- IC50 (hCA II): 470 nM
- Ki (hCA II): 412 ± 115 nM

Compound: NS(=O)(=O)c1ccc(N2N=C(c3ccc([N+](=O)[O-])cc3)CC2c2ccccc2)cc1 (stereo not shown) [Compound 15, 4-(3-(4-Nitrophenyl)-5-phenyl-4,5-dihydro-1H-pyrazol-1-yl)benzenesulfonamide]
- IC50 (hCA I): 416 nM
- Ki (hCA I): 326 ± 29.4 nM
- IC50 (hCA II): 534 nM
- Ki (hCA II): 430 ± 87.3 nM

Compound: NS(=O)(=O)c1ccc(N2N=C(c3ccc(O)cc3)CC2c2ccccc2)cc1 (stereo not shown) [Compound 16, 4-(3-(4-Hydroxyphenyl)-5-phenyl-4,5-dihydro-1H-pyrazol-1-yl)benzenesulfonamide]
- IC50 (hCA I): 528 nM
- Ki (hCA I): 472 ± 57.5 nM
- IC50 (hCA II): 459 nM
- Ki (hCA II): 592 ± 134 nM
